Results published in US10806140B2, “Antimicrobial compound” (Physical Sciences, Inc., priority 2018, dated 2020).

What was measured:
S. aureus = experiment: AATCC 100 antimicrobial test of derivatized fabrics, S. aureus; format: cell-based; settings: for % Kill at 4 hours / % Kill at 24 hours: dendrimer attached to cotton fabric, S. aureus; for % kill at 4 hrs.: direct functionalization, ~1×10^6 CFU/mL; for % Kill of laundered fabric (4 hrs.): derivatized cotton
Description: The antimicrobial testing during this effort was performed. […] The mixture is incubated for selected times. The mixture is then diluted with PBS and a bacterial culture (agar plate) is performed. The colony forming units (CFUs) are determined and the results are expressed as kill efficiency (percentage kill relative to the initial concentration).

K. pneumoniae = experiment: AATCC 100 antimicrobial test of fabrics, K. pneumoniae; format: cell-based; settings: for AM efficacy against K. Pneumoniae (FIG. 37): derivatized cotton swatches
Description: (§1) The antimicrobial testing during this effort was performed. The evaluation of the AM efficacy has been performed using a standard method, based on the AATCC 100 protocol.
(§2) The experimental procedure starts with 1 mL of a bacterial culture (S. aureus representative for Gram positive bacteria or K. pneumoniae representative for Gram negative bacteria) which is inoculated to 2-3 fabric swatches (full absorption). The mixture is incubated for selected times. The mixture is then diluted with PBS and a bacterial culture (agar plate) is performed. The colony forming units (CFUs) are determined and the results are expressed as kill efficiency (percentage kill relative to the initial concentration).
The silver fabrics are considered to be the state-of the art in the realm of AM textiles. Two silver-based consumer products (cotton fabrics) were selected for evaluation of their AM properties compared to those of QAC-I derivatized cotton. The first material comprised a silver-shirt which contained silver nanoparticles. The second material was a silver-towel which contained a permanent coating of silver ions. Swatches of both products were generated and the antimicrobial efficacy was tested using the AATCC 100 protocol (K. Pneumoniae at 4, 24 and 48 hrs. time points).

S. Epidermisis = experiment: Broad spectrum AM testing of derivatized cotton, S. Epidermisis; format: cell-based; settings: derivatized cotton fabrics
Description: as §1, §2
(§3) The QAC-I derivatized cotton fabrics were evaluated against several strains of Gram positive and Gram negative bacteria and one fungus (C. Albicans).

C. Albicans = experiment: Broad spectrum AM testing of derivatized cotton, C. Albicans; format: cell-based; settings: derivatized cotton fabrics
Description: as §1, §2, §3

[1] = system: C. Difficile (vegetative); experiment: Additional AM testing of derivatized cotton, C. Difficile vegetative cells; format: cell-based; settings: derivatized cotton fabrics
C. Difficile (spores) = experiment: Additional AM testing of derivatized cotton, C. Difficile spores; format: cell-based; settings: derivatized cotton fabrics
MRSA = experiment: Additional AM testing of derivatized cotton, MRSA; format: cell-based; settings: derivatized cotton fabrics
MS2 = settings: derivatized cotton fabrics
Text: Cotton fabrics derivatized with imidazolium dendrimer were further evaluated for the AM efficacy against other pathogens.

[2] = system: skin of New Zealand White rabbits; experiment: Direct Primary Skin Irritation Test - ISO; format: in vivo
Description: Cotton fabrics derivatized with QAC-I dendrimer was evaluated at Toxikon for skin irritation using a GLP protocol based on “Direct Primary Skin Irritation Test—ISO”. The test article was evaluated for its potential to produce primary skin irritation after a single topical minimum 4 hour application to the skin of New Zealand White rabbits. Test sites were scored for erythema and/or edema.

E. Coli = experiment: JIS Z 2801 antimicrobial test of metallic coupons, E. Coli; format: cell-based; settings: clear anodized aluminum coupon, front side; vs control without dendrimer; 24 hours
Description: The AM testing was performed using the standardized JIS Z 2801 method against the Gram negative, E. Coli bacteria. A summary of the procedure is presented below:
The test microorganism is prepared, usually by growth in a liquid culture medium. • The suspension of test microorganism is standardized by dilution in a nutritive broth (this affords microorganisms the opportunity to proliferate during the test). • Control and test surfaces are inoculated with microorganisms, and then the microbial inoculum is covered with a thin, sterile film. Covering the inoculum spreads it, prevents it from evaporating, and ensures close contact with the antimicrobial surface. • Microbial concentrations are determined at “time zero” by elution followed by dilution and plating to agar. • A control is run to verify that the neutralization/elution method effectively neutralizes the antimicrobial agent in the antimicrobial surface being tested. • Inoculated, covered control and antimicrobial test surfaces are allowed to incubate undisturbed in a humid environment for 24 hours, usually at body temperature. • After incubation, microbial concentrations are determined. Reduction of microorganisms relative to the control surface is calculated.

CCCCCCCCCCn1cc[n+](CCNC(=O)NCCCNC(=O)CCN(CCCNC(=O)CCN(CCC(=O)NCCCN(CCC(=O)NCCCNC(=O)NCC[n+]2ccn(CCCCCCCCCC)c2C)CCC(=O)NCCCNC(=O)NCC[n+]2ccn(CCCCCCCCCC)c2C)CCc2ccc(Nc3nc(Cl)nc(Cl)n3)cc2)CCC(=O)NCCCNC(=O)NCC[n+]2ccn(CCCCCCCCCC)c2C)c1C.[Cl-].[Cl-].[Cl-].[Cl-] [QAC-I]
% Kill at 4 hours (S. aureus): >99%
% Kill at 24 hours (S. aureus): >99%
% kill at 4 hrs. (S. aureus; derivatized NYCO fabric): > 99%
AM Efficacy (max.) (S. aureus; derivatized cotton fabrics, S. Aureus): >99.999%
% Kill of laundered fabric (4 hrs.) (S. aureus; reverse protocol, laundering detergent None, S. Aureus, % kill relative to final amount of bacteria): >99.99%
% Kill of laundered fabric (4 hrs.) (S. aureus; 1 accelerated cycle 45 minutes at 49° C., Tide 0.23% w/v, S. Aureus): 24%
% Kill of laundered fabric (4 hrs.) (S. aureus; 1 accelerated cycle 45 minutes at 49° C., Tween-20 0.23% w/v, S. Aureus): >99.99%
% kill at 4 hrs. (S. aureus; derivatized polyester fabric): > 99%
AM Efficacy (max.) (K. pneumoniae; derivatized cotton fabrics, K. Pneumoniae): >99.99%
AM efficacy against K. Pneumoniae (FIG. 37) (K. pneumoniae): very high efficacy
AM Efficacy (max.) (S. Epidermisis): >99.99%
AM Efficacy (max.) (C. Albicans): >99.99%
% Reduction [1]: 99.20%
% Reduction (C. Difficile (spores)): 99.82%
% Reduction (MRSA): 99.80%
% Reduction (MS2): 99.95%
Skin irritation classification ([2]; criteria of the protocol): negligible irritant
Edema score ([2]; test sites, 24 Hours, Site 1): 0/0
Erythema score ([2]; test sites, 24 Hours, Site 1): 0/0
Edema score ([2]; test sites, 24 Hours, Site 2): 0/0
Erythema score ([2]; test sites, 24 Hours, Site 2): 0/0
Edema score ([2]; test sites, 48 Hours, Site 1): 0/0
Erythema score ([2]; test sites, 48 Hours, Site 1): 0/0
Edema score ([2]; test sites, 48 Hours, Site 2): 0/0
Erythema score ([2]; test sites, 48 Hours, Site 2): 0/0
Edema score ([2]; test sites, 60 Minutes, Site 1): 0/0
Erythema score ([2]; test sites, 60 Minutes, Site 1): 0/0
Edema score ([2]; test sites, 60 Minutes, Site 2): 0/0
Erythema score ([2]; test sites, 60 Minutes, Site 2): 0/0
Edema score ([2]; test sites, 72 Hours, Site 1): 0/0
Erythema score ([2]; test sites, 72 Hours, Site 1): 0/0
Edema score ([2]; test sites, 72 Hours, Site 2): 0/0
Erythema score ([2]; test sites, 72 Hours, Site 2): 0/0
Total (Erythema + Edema Scores)/(2 Test Sites × 3 Observation Points) ([2]; test sites, per animal, 60 minute scores not included): 0.0

CCCCCCCCCCn1cc[n+](CCNC(=O)NCCCNC(=O)CCN(CCCNC(=O)CCN(CCC(=O)NCCCN(CCC(=O)NCCCNC(=O)NCC[n+]2ccn(CCCCCCCCCC)c2C)CCC(=O)NCCCNC(=O)NCC[n+]2ccn(CCCCCCCCCC)c2C)CCc2ccc(NC(=O)CP(=O)(O)O)cc2)CCC(=O)NCCCNC(=O)NCC[n+]2ccn(CCCCCCCCCC)c2C)c1C.[Cl-].[Cl-].[Cl-].[Cl-] [AM compound (1)]
log reduction of the inoculum (E. Coli): > 6 log
reduction of the inoculum (%) (E. Coli): > 99.9999%

CCCCCCCCCCCC[N+](C)(CCCCCCCCCCCC)CCNC(=O)NCCCNC(=O)CCN(CCCNC(=O)CCN(CCC(=O)NCCCN(CCC(=O)NCCCNC(=O)NCC[N+](C)(CCCCCCCCCCCC)CCCCCCCCCCCC)CCC(=O)NCCCNC(=O)NCC[N+](C)(CCCCCCCCCCCC)CCCCCCCCCCCC)CCc1ccc(Nc2nc(Cl)nc(Cl)n2)cc1)CCC(=O)NCCCNC(=O)NCC[N+](C)(CCCCCCCCCCCC)CCCCCCCCCCCC.[Cl-].[Cl-].[Cl-].[Cl-] [QAC-D]
% Kill at 4 hours (S. aureus): −38%

CCCCCCCCCCCC[N+](C)(C)CCNC(=O)NCCCNC(=O)CCN(CCCNC(=O)CCN(CCC(=O)NCCCN(CCC(=O)NCCCNC(=O)NCC[N+](C)(C)CCCCCCCCCCCC)CCC(=O)NCCCNC(=O)NCC[N+](C)(C)CCCCCCCCCCCC)CCc1ccc(Nc2nc(Cl)nc(Cl)n2)cc1)CCC(=O)NCCCNC(=O)NCC[N+](C)(C)CCCCCCCCCCCC.[Cl-].[Cl-].[Cl-].[Cl-] [QAC-4]
% Kill at 4 hours (S. aureus): >99%
% Kill at 24 hours (S. aureus): 62%
AM efficacy against K. Pneumoniae (FIG. 37) (K. pneumoniae): very high efficacy

CCCCCCCCCCCCCCCCCC[N+](C)(C)CCNC(=O)NCCCNC(=O)CCN(CCCNC(=O)CCN(CCC(=O)NCCCN(CCC(=O)NCCCNC(=O)NCC[N+](C)(C)CCCCCCCCCCCCCCCCCC)CCC(=O)NCCCNC(=O)NCC[N+](C)(C)CCCCCCCCCCCCCCCCCC)CCc1ccc(Nc2nc(Cl)nc(Cl)n2)cc1)CCC(=O)NCCCNC(=O)NCC[N+](C)(C)CCCCCCCCCCCCCCCCCC.[Cl-].[Cl-].[Cl-].[Cl-] [QAC-C18]
% Kill at 4 hours (S. aureus): 78%
% Kill at 24 hours (S. aureus): 11%
